Reference: patent US20130345218A1 (Vertex Pharmaceuticals Incorporated, priority 2010, published 2013)
Read-outs that look alike come from different tables or passages of the source.

Legend:
[1] = system: influenza A virus (A/PR/8/34); assay: microbe, parasite or virus in culture; assay type: cell-based; conditions: mean IC50 (mean all), MDCK cells, A/PR/8/34, 72 hours, read-out: Flu, MDCK IC50
[2] = system: influenza A virus (A/PR/8/34) minus-strand viral RNA; assay: microbe, parasite or virus in culture; assay type: cell-based; conditions: mean EC50 (mean all), viral RNA by bDNA, read-out: bDNA EC50
[3] = Influenza A virus, PR/8, MDCK, 72 h

**Q.** Which results are given for “3-(2-(5-fluoro-1H-pyrrolo[2,3-b]pyridin-3-yl)pyridin-4-ylamino)bicyclo[2.2.2]octane-2-carboxylic acid [Compound I-49]”?
**A.** IC50 [1]: < 3.3 µM; EC50 [2]: < 3.3 µM

**Q.** Which results are given for O=C(O)[C@H]1C2CCC(CC2)[C@@H]1Nc1cncc(-c2c[nH]c3ncc(F)cc23)n1 (mixture of isomers) [Compound I-38]?
**A.** IC50 [1, 3]: < 3.3 µM; EC50 ([2]; Influenza A virus, PR/8): < 3.3 µM

**Q.** For O=C(O)[C@H]1C2CCC(CC2)[C@@H]1Nc1ncc(F)c(-c2c[nH]c3ncc(F)cc23)n1 (racemic) [Compound I-29, (+/−) trans-3-((5-fluoro-4-(5-fluoro-1H-pyrrolo[2,3-b]pyridin-3-yl)pyrimidin-2-yl)amino)bicyclo[2.2.2]octane-2-carboxylic acid], which IC50 [1, 3] is on record?
**A.** Its IC50 is under 3.3 µM.

**Q.** And the EC50 ([2]; Influenza A virus, PR/8)?
**A.** Its EC50 is under 3.3 µM.

**Q.** How did the IC50 [1, 3] turn out when N#Cc1cc(F)c(N[C@H]2C3CCC(CC3)[C@@H]2C(=O)O)nc1-c1c[nH]c2ncc(F)cc12 (racemic) [Compound I-30] was run?
**A.** Its IC50 is under 3.3 µM.

**Q.** And the EC50 ([2]; Influenza A virus, PR/8)?
**A.** Its EC50 is under 3.3 µM.

**Q.** For O=C(O)[C@H]1C2CCC(CC2)[C@@H]1Nc1nc(-c2c[nH]c3ncc(F)cc23)ccc1F (racemic) [Compound I-35, (+/−) 3-(3-fluoro-6-(5-fluoro-1H-pyrrolo[2,3-b]pyridin-3-yl)pyridin-2-ylamino)bicyclo[2.2.2]octane-2-carboxylic acid], which IC50 [1, 3] is on record?
**A.** The IC50 was under 3.3 µM.

**Q.** And the EC50 ([2]; Influenza A virus, PR/8)?
**A.** The EC50 was under 3.3 µM.

**Q.** How did the IC50 [1, 3] turn out when O=C(O)[C@H]1C2CCC(CC2)[C@@H]1Nc1cc(C(F)(F)F)cc(-c2c[nH]c3ncc(F)cc23)n1 (racemic) [Compound I-37, (+/−)-trans-3-((6-(5-fluoro-1H-pyrrolo[2,3-b]pyridin-3-yl)-4-(trifluoro-methyl)pyridin-2-yl)amino)bicyclo[2.2.2]octane-2-carboxylic acid] was run?
**A.** Its IC50 is under 3.3 µM.

**Q.** And the EC50 ([2]; Influenza A virus, PR/8)?
**A.** Its EC50 is under 3.3 µM.

**Q.** For N#Cc1cnc(N[C@@H]2C3CCC(CC3)[C@H]2C(=O)O)nc1-c1c[nH]c2ncc(C(F)(F)F)cc12 (racemic) [Compound I-39, (+/−)-trans 3-((5-cyano-4-(5-(trifluoromethyl)-1H-pyrrolo[2,3-b]pyridin-3-yl)pyrimidin-2-yl)amino)bicyclo[2.2.2]octane-2-carboxylic acid], which IC50 [1, 3] is on record?
**A.** Its IC50 is under 3.3 µM.

**Q.** And the EC50 ([2]; Influenza A virus, PR/8)?
**A.** The EC50 was under 3.3 µM.

**Q.** With O=C(O)C1C2CCC(CC2)C1Nc1cnnc(-c2c[nH]c3ncc(F)cc23)n1 (racemic) [Compound I-42, (+/−)-3-[[3-(5-fluoro-1H-pyrrolo[2,3-b]pyridin-3-yl)-1,2,4-triazin-5-yl]amino]bicyclo[2.2.2]octane-2-carboxylic acid] as the compound, how does the IC50 [1, 3] read?
**A.** Its IC50 is under 3.3 µM.

**Q.** What about the EC50 ([2]; Influenza A virus, PR/8) of the same compound?
**A.** Its EC50 is under 3.3 µM.

**Q.** What does the source list for O=C(O)[C@H]1C2CCC(CC2)[C@@H]1Nc1nc(Cl)nc(-c2c[nH]c3ncc(F)cc23)n1 (racemic) [Compound I-44, (+/−)-trans-3-(4-chloro-6-(5-fluoro-1H-pyrrolo[2,3-b]pyridin-3-yl)-1,3,5-triazin-2-ylamino)bicyclo[2.2.2]octane-2-carboxylic acid]?
**A.** IC50 [1, 3]: < 3.3 µM; EC50 ([2]; Influenza A virus, PR/8): < 3.3 µM

**Q.** For O=C(O)[C@H]1C2CCC(CC2)[C@@H]1Nc1cc(-c2c[nH]c3ncc(F)cc23)ncc1F (racemic) [Compound I-50, (+/−)-(2,3)-trans-3-((5-fluoro-2-(5-fluoro-1H-pyrrolo[2,3-b]pyridin-3-yl)pyridin-4-yl)amino)bicyclo[2.2.2]octane-2-carboxylic acid], which IC50 [1, 3] is on record?
**A.** Its IC50 is under 3.3 µM.

**Q.** What about the EC50 ([2]; Influenza A virus, PR/8) of the same compound?
**A.** The EC50 was under 3.3 µM.

**Q.** For N#Cc1cc(F)c(NC2C3CCC(CC3)C2C(=O)O)cc1-c1c[nH]c2ncc(F)cc12 (racemic) [Compound I-51, (+/−)-3-((4-cyano-2-fluoro-5-(5-fluoro-1H-pyrrolo[2,3-b]pyridin-3-yl)phenyl)amino)bicyclo[2.2.2]octane-2-carboxylic acid], which IC50 [1, 3] is on record?
**A.** Its IC50 is under 3.3 µM.

**Q.** And the EC50 ([2]; Influenza A virus, PR/8)?
**A.** Its EC50 is under 3.3 µM.

**Q.** Which results are given for N#Cc1cnc(N[C@@H]2CCC[C@H](NC(=O)C3CC3)C2)nc1-c1c[nH]c2ncc(C(F)(F)F)cc12 (stereo in doubt) [Compound I-10, N-((1S,3R)-3-((5-cyano-4-(5-(trifluoromethyl)-1H-pyrrolo[2,3-b]pyridin-3-yl)pyrimidin-2-yl)amino)cyclohexyl)cyclopropanecarboxamide]?
**A.** IC50 [1, 3]: < 3.3 µM; EC50 ([2]; Influenza A virus, PR/8): < 3.3 µM

**Q.** Which results are given for O=C(N[C@@H]1CCC[C@H](Nc2nc(-c3c[nH]c4ncc(F)cc34)c(C(F)(F)F)cc2F)C1)N1CCCC1 (stereo in doubt) [Compound I-20, N-((1R,3S)-3-((3-fluoro-6-(5-fluoro-1H-pyrrolo[2,3-b]pyridin-3-yl)-5-(trifluoromethyl)-pyridin-2-yl)amino)cyclohexyl)pyrrolidine-1-carboxamide]?
**A.** IC50 [1, 3]: < 3.3 µM; EC50 ([2]; Influenza A virus, PR/8): < 3.3 µM

**Q.** N#Cc1cnc(N[C@H]2CCCC[C@@H]2C(=O)O)nc1-c1c[nH]c2ncc(Cl)cc12 [Compound I-1, (1S,2S)-2-((4-(5-chloro-1H-pyrrolo[2,3-b]pyridin-3-yl)-5-cyanopyrimidine-2-yl)amino)-cyclohexanecarboxylic acid] was tested. Which IC50 [1, 3] did it give?
**A.** Its IC50 is under 3.3 µM.

**Q.** What about the EC50 ([2]; Influenza A virus, PR/8) of the same compound?
**A.** The EC50 was under 3.3 µM.

**Q.** With N#Cc1cnc(N[C@H]2CCC[C@@H](C(=O)O)C2)nc1-c1c[nH]c2ncc(Cl)cc12 [Compound I-3, (1R,3S)-3-((4-(5-chloro-1H-pyrrolo[2,3-b]pyridin-3-yl)-5-cyanopyrimidine-2-yl)amino)-cyclohexanecarboxylic acid] as the compound, how does the IC50 [1, 3] read?
**A.** The IC50 was under 3.3 µM.

**Q.** And the EC50 ([2]; Influenza A virus, PR/8)?
**A.** The EC50 was under 3.3 µM.

**Q.** Which results are given for N#Cc1cnc(N[C@H]2CCC[C@@H](C(=O)O)C2)nc1-c1c[nH]c2ncc(C(F)(F)F)cc12 [Compound I-4, (1R,3S)-3-((5-cyano-4-(5-(trifluoromethyl)-1H-pyrrolo[2,3-b]pyridin-3-yl)pyrimidin-2-yl)amino)cyclohexanecarboxylic acid]?
**A.** IC50 [1, 3]: < 3.3 µM; EC50 ([2]; Influenza A virus, PR/8): < 3.3 µM

**Q.** For N#Cc1cnc(N[C@H]2CCC[C@@H](C(=O)O)C2)nc1-c1c[nH]c2ncccc12 [Compound I-5], which IC50 [1, 3] is on record?
**A.** Its IC50 is at least 3.3 µM.

**Q.** What does the source list for CC1(C(=O)N[C@@H]2CCC[C@H](Nc3ncc(C#N)c(-c4c[nH]c5ncc(C(F)(F)F)cc45)n3)C2)CC1 [Compound I-6, N-((1R,3S)-3-((5-cyano-4-(5-(trifluoromethyl)-1H-pyrrolo[2,3-b]pyridin-3-yl)pyrimidin-2-yl)amino)cyclohexyl)-1-methylcyclopropanecarboxamide]?
**A.** IC50 [1, 3]: < 3.3 µM; EC50 ([2]; Influenza A virus, PR/8): < 3.3 µM

**Q.** What does the source list for N#Cc1cnc(N[C@H]2CCCC[C@@H]2C(=O)O)nc1-c1c[nH]c2ncc(C(F)(F)F)cc12 [Compound I-7, (1S,2S)-2-((5-cyano-4-(5-(trifluoromethyl)-1H-pyrrolo[2,3-b]pyridin-3-yl)pyrimidin-2-yl)amino)cyclohexanecarboxylic acid]?
**A.** IC50 [1, 3]: < 3.3 µM; EC50 ([2]; Influenza A virus, PR/8): < 3.3 µM

**Q.** What does the source list for CC[C@]1(C(=O)O)CCCC[C@@H]1Nc1ncc(C#N)c(-c2c[nH]c3ncc(C(F)(F)F)cc23)n1 [Compound I-8, (1S,2S)-2-((5-cyano-4-(5-(trifluoromethyl)-1H-pyrrolo[2,3-b]pyridin-3-yl)pyrimidin-2-yl)amino)-1-ethylcyclohexanecarboxylic acid]?
**A.** IC50 [1, 3]: < 3.3 µM; EC50 ([2]; Influenza A virus, PR/8): < 3.3 µM

**Q.** Which IC50 [1, 3] does the source give for COCC(=O)N[C@@H]1CCC[C@H](Nc2ncc(C#N)c(-c3c[nH]c4ncc(C(F)(F)F)cc34)n2)C1 [Compound I-9, N-((1R,3S)-3-((5-cyano-4-(5-(trifluoromethyl)-1H-pyrrolo[2,3-b]pyridin-3-yl)pyrimidin-2-yl)amino)cyclohexyl)-2-methoxyacetamide] here?
**A.** The IC50 was under 3.3 µM.

**Q.** And the EC50 ([2]; Influenza A virus, PR/8)?
**A.** The EC50 was under 3.3 µM.

**Q.** With N#Cc1cc(F)c(N[C@H]2CCC[C@@H](NC(=O)N3CCOCC3)C2)nc1-c1c[nH]c2ncc(Cl)cc12 [Compound I-11, N-((1R,3S)-3-((6-(5-chloro-1H-pyrrolo[2,3-b]pyridin-3-yl)-5-cyano-3-fluoro-pyridin-2-yl)amino)cyclohexyl)morpholine-4-carboxamide] as the compound, how does the IC50 [1, 3] read?
**A.** Its IC50 is under 3.3 µM.

**Q.** What about the EC50 ([2]; Influenza A virus, PR/8) of the same compound?
**A.** The EC50 was under 3.3 µM.

**Q.** What does the source list for N#Cc1cc(F)c(N[C@H]2CCC[C@@H](NC(=O)N3CCOCC3)C2)nc1-c1c[nH]c2ncc(F)cc12 [Compound I-12, N-((1R,3S)-3-((5-cyano-3-fluoro-6-(5-fluoro-1H-pyrrolo[2,3-b]pyridin-3-yl)pyridin-2-yl)amino)cyclohexyl)morpholine-4-carboxamide]?
**A.** IC50 [1, 3]: < 3.3 µM; EC50 ([2]; Influenza A virus, PR/8): < 3.3 µM

**Q.** Which results are given for NC(=O)c1cc(F)c(N[C@H]2CCC[C@@H](NC(=O)N3CCOCC3)C2)nc1-c1c[nH]c2ncc(F)cc12 [Compound I-13, N-((1R,3S)-3-((5-carbamoyl-3-fluoro-6-(5-fluoro-1H-pyrrolo[2,3-b]pyridin-3-yl)pyridin-2-yl)amino)cyclohexyl)morpholine-4-carboxamide]?
**A.** IC50 [1, 3]: < 3.3 µM; EC50 ([2]; Influenza A virus, PR/8): < 3.3 µM

**Q.** N#Cc1cc(F)c(N[C@H]2CCC[C@@H](NC(=O)N3CC[C@@H](F)C3)C2)nc1-c1c[nH]c2ncc(F)cc12 [Compound I-14, (R)—N-((1R,3S)-3-((5-cyano-3-fluoro-6-(5-fluoro-1H-pyrrolo[2,3-b]pyridin-3-yl)pyridin-2-yl)amino)cyclohexyl)-3-fluoropyrrolidine-1-carboxamide] was tested. Which IC50 [1, 3] did it give?
**A.** The IC50 was under 3.3 µM.

**Q.** And the EC50 ([2]; Influenza A virus, PR/8)?
**A.** Its EC50 is under 3.3 µM.

**Q.** What does the source list for O=C(N[C@@H]1CCC[C@H](Nc2nc(-c3c[nH]c4ncc(F)cc34)c(F)cc2F)C1)N1CCCC1 [Compound I-15, N-((1R,3S)-3-((3,5-difluoro-6-(5-fluoro-1H-pyrrolo[2,3-b]pyridin-3-yl)pyridin-2-yl)amino)cyclohexyl)pyrrolidine-1-carboxamide]?
**A.** IC50 [1, 3]: < 3.3 µM; EC50 ([2]; Influenza A virus, PR/8): < 3.3 µM

**Q.** How did the IC50 [1, 3] turn out when C[C@@H]1CCN(C(=O)N[C@@H]2CCC[C@H](Nc3nc(-c4c[nH]c5ncc(F)cc45)c(F)cc3F)C2)C1 [Compound I-16, (R)—N-((1R,3S)-3-((3,5-difluoro-6-(5-fluoro-1H-pyrrolo[2,3-b]pyridin-3-yl)-pyridin-2-yl)amino)cyclohexyl)-3-methylpyrrolidine-1-carboxamide] was run?
**A.** Its IC50 is under 3.3 µM.

**Q.** And the EC50 ([2]; Influenza A virus, PR/8)?
**A.** Its EC50 is under 3.3 µM.

**Q.** With O=C(O)[C@@H]1C2CCC(CC2)[C@H]1Nc1nc(-c2c[nH]c3ncc(F)cc23)c(F)cc1F [Compound I-27] as the compound, how does the EC50 [2] read?
**A.** The EC50 was under 3.3 µM.

**Q.** “(+/−)-(exo)-7-((3,5-difluoro-6-(5-fluoro-1H-pyrrolo[2,3-b]pyridin-3-yl)pyridin-2-yl)amino)bicyclo[3.2.2]nonane-6-carboxylic acid [Compound I-36]” was tested. Which EC50 [2] did it give?
**A.** The EC50 was under 3.3 µM.
